# Results from ChEMBL document CHEMBL3885861, “Open TG-GATES”.
# Species on record: Rattus norvegicus
# Assay: Open TG-GATES - Regimen: Daily Repeat
# Assay type: toxicity, organism-based, Sprague-Dawley
# Design: regimen Daily Repeat, gender Male, age 6 weeks
# Details: in vivo, po, route gavage; for APTT / Bas / Eos / Fbg / Hb / Ht / Lym / MCH / MCHC / MCV / Mono / Neu / PT / Plat / RBC / Ret / WBC: tissue Blood; for LIVER: tissue Liver; for A/G / ALP / ALT / AST / BUN / CRE / Ca / Cl / DBIL / GLC / IP / K / LDH / Na / PL / RALB / TBIL / TC / TG / TP / gamma-GTP: tissue Plasma
# [1] = 0 mg/kg, 72 h, dose level Control, time 3 day
# [2] = 0 mg/kg, […], dose level Control, time 7 day
# [3] = 0 mg/kg, […], dose level Control, time 14 day
# [4] = 0 mg/kg, […], dose level Control, time 28 day
# [5] = 5 mg/kg, 72 h, dose level Low, time 3 day
# [6] = 5 mg/kg, […], dose level Low, time 7 day
# [7] = 5 mg/kg, […], dose level Low, time 14 day
# [8] = 5 mg/kg, […], dose level Low, time 28 day
smiles,measurement,setting,value
C=C(C)[C@H]1Cc2c(ccc3c2O[C@@H]2COc4cc(OC)c(OC)cc4[C@@H]2C3=O)O1 [ROTENONE],TERMINAL_BW,[1],213.4 g
same,APTT,[1],16 s
same,Bas,[1],0%
same,Eos,[1],1%
same,Fbg,[1],211.8 mg/dL
same,Hb,[1],13.2 g/dL
same,Ht,[1],40.7%
same,Lym,[1],77.8%
same,MCH,[1],20.8 pg
same,MCHC,[1],32.4%
same,MCV,[1],64.1 fL
same,Mono,[1],7.8%
same,Neu,[1],14%
same,PT,[1],11.8 s
same,Plat,[1],118 x10_4/uL
same,RBC,[1],635 x10_4/ul
same,Ret,[1],6.1%
same,WBC,[1],92.8 x10_2/uL
same,LIVER,[1],10 g
same,A/G,[1],2.3
same,ALP,[1],1677.6 IU/L
same,ALT,[1],37.8 IU/L
same,AST,[1],67.4 IU/L
same,BUN,[1],18 mg/dL
same,CRE,[1],0.4 mg/dL
same,Ca,[1],11.3 mg/dL
same,Cl,[1],104.2 meq/L
same,DBIL,[1],0.014 mg/dL
same,GLC,[1],187.2 mg/dL
same,IP,[1],7.1 mg/dL
same,K,[1],4.4 meq/L
same,LDH,[1],96.6 IU/L
same,Na,[1],140.6 meq/L
same,PL,[1],141.8 mg/dL
same,RALB,[1],3.8 g/dL
same,TBIL,[1],0.042 mg/dL
same,TC,[1],77.6 mg/dL
same,TG,[1],105 mg/dL
same,TP,[1],5.5 g/dL
same,gamma-GTP,[1],0.4 IU/L
same,TERMINAL_BW,[2],254 g
same,TERMINAL_BW,[3],305.5 g
same,TERMINAL_BW,[4],378.4 g
same,APTT,[2],15.9 s
same,Bas,[2],0%
same,Eos,[2],1%
same,Fbg,[2],239.4 mg/dL
same,Hb,[2],13.2 g/dL
same,Ht,[2],40.2%
same,Lym,[2],80%
same,MCH,[2],21.1 pg
same,MCHC,[2],32.8%
same,MCV,[2],64.3 fL
same,Mono,[2],6%
same,Neu,[2],13.2%
same,PT,[2],11.6 s
same,Plat,[2],122.4 x10_4/uL
same,RBC,[2],626.2 x10_4/ul
same,Ret,[2],5.5%
same,WBC,[2],113.8 x10_2/uL
same,APTT,[3],14.9 s
same,Bas,[3],0%
same,Eos,[3],1%
same,Fbg,[3],241.8 mg/dL
same,Hb,[3],13.9 g/dL
same,Ht,[3],41.9%
same,Lym,[3],73.6%
same,MCH,[3],20.5 pg
same,MCHC,[3],33.1%
same,MCV,[3],61.8 fL
same,Mono,[3],4.6%
same,Neu,[3],21%
same,PT,[3],11.3 s
same,Plat,[3],125.6 x10_4/uL
same,RBC,[3],678.4 x10_4/ul
same,Ret,[3],3.8%
same,WBC,[3],106.4 x10_2/uL
same,APTT,[4],18 s
same,Bas,[4],0%
same,Eos,[4],1%
same,Fbg,[4],217.6 mg/dL
same,Hb,[4],14.9 g/dL
same,Ht,[4],45%
same,Lym,[4],72%
same,MCH,[4],19.7 pg
same,MCHC,[4],33.1%
same,MCV,[4],59.3 fL
same,Mono,[4],7.2%
same,Neu,[4],19.8%
same,PT,[4],12.5 s
same,Plat,[4],115 x10_4/uL
same,RBC,[4],758.8 x10_4/ul
same,Ret,[4],2%
same,WBC,[4],107.2 x10_2/uL
same,LIVER,[2],12.8 g
same,LIVER,[3],14.2 g
same,LIVER,[4],15.3 g
same,A/G,[2],2.1
same,ALP,[2],1286.8 IU/L
same,ALT,[2],35.2 IU/L
same,AST,[2],60.6 IU/L
same,BUN,[2],19 mg/dL
same,CRE,[2],0.4 mg/dL
same,Ca,[2],11.5 mg/dL
same,Cl,[2],104.6 meq/L
same,DBIL,[2],0.014 mg/dL
same,GLC,[2],195.4 mg/dL
same,IP,[2],7.7 mg/dL
same,K,[2],4.5 meq/L
same,LDH,[2],71.8 IU/L
same,Na,[2],140.4 meq/L
same,PL,[2],157.2 mg/dL
same,RALB,[2],3.9 g/dL
same,TBIL,[2],0.034 mg/dL
same,TC,[2],81.2 mg/dL
same,TG,[2],132.2 mg/dL
same,TP,[2],5.8 g/dL
same,gamma-GTP,[2],1 IU/L
same,A/G,[3],2.1
same,ALP,[3],1512 IU/L
same,ALT,[3],36.4 IU/L
same,AST,[3],67.2 IU/L
same,BUN,[3],18.4 mg/dL
same,CRE,[3],0.4 mg/dL
same,Ca,[3],11.5 mg/dL
same,Cl,[3],104.8 meq/L
same,DBIL,[3],0.01 mg/dL
same,GLC,[3],186 mg/dL
same,IP,[3],6.9 mg/dL
same,K,[3],4.5 meq/L
same,LDH,[3],111.6 IU/L
same,Na,[3],139.6 meq/L
same,PL,[3],156 mg/dL
same,RALB,[3],4 g/dL
same,TBIL,[3],0.03 mg/dL
same,TC,[3],80 mg/dL
same,TG,[3],131.8 mg/dL
same,TP,[3],5.9 g/dL
same,gamma-GTP,[3],1 IU/L
same,A/G,[4],2
same,ALP,[4],1248 IU/L
same,ALT,[4],32.2 IU/L
same,AST,[4],58.6 IU/L
same,BUN,[4],18.2 mg/dL
same,CRE,[4],0.4 mg/dL
same,Ca,[4],10.9 mg/dL
same,Cl,[4],106.8 meq/L
same,DBIL,[4],0.01 mg/dL
same,GLC,[4],182.2 mg/dL
same,IP,[4],5.7 mg/dL
same,K,[4],4.5 meq/L
same,LDH,[4],62.8 IU/L
same,Na,[4],141.2 meq/L
same,PL,[4],134.8 mg/dL
same,RALB,[4],3.8 g/dL
same,TBIL,[4],0.03 mg/dL
same,TC,[4],62 mg/dL
same,TG,[4],182.2 mg/dL
same,TP,[4],5.7 g/dL
same,gamma-GTP,[4],1 IU/L
same,TERMINAL_BW,[5],226.1 g
same,APTT,[5],17.7 s
same,Bas,[5],0%
same,Eos,[5],1%
same,Fbg,[5],212.2 mg/dL
same,Hb,[5],13 g/dL
same,Ht,[5],39.1%
same,Lym,[5],76.2%
same,MCH,[5],21.3 pg
same,MCHC,[5],33.2%
same,MCV,[5],64.1 fL
same,Mono,[5],5.6%
same,Neu,[5],17.2%
same,PT,[5],12.1 s
same,Plat,[5],129 x10_4/uL
same,RBC,[5],610.6 x10_4/ul
same,Ret,[5],7.7%
same,WBC,[5],114.4 x10_2/uL
same,LIVER,[5],11.2 g
same,A/G,[5],2.2
same,ALP,[5],1376 IU/L
same,ALT,[5],37.2 IU/L
same,AST,[5],67.4 IU/L
same,BUN,[5],19.2 mg/dL
same,CRE,[5],0.4 mg/dL
same,Ca,[5],11.6 mg/dL
same,Cl,[5],104.8 meq/L
same,DBIL,[5],0.014 mg/dL
same,GLC,[5],188.2 mg/dL
same,IP,[5],7.5 mg/dL
same,K,[5],4.5 meq/L
same,LDH,[5],111.2 IU/L
same,Na,[5],142.4 meq/L
same,PL,[5],152.4 mg/dL
same,RALB,[5],3.8 g/dL
same,TBIL,[5],0.032 mg/dL
same,TC,[5],85.6 mg/dL
same,TG,[5],78 mg/dL
same,TP,[5],5.6 g/dL
same,gamma-GTP,[5],0.4 IU/L
same,TERMINAL_BW,[6],258.8 g
same,TERMINAL_BW,[7],318.2 g
same,TERMINAL_BW,[8],393.8 g
same,APTT,[6],15.9 s
same,Bas,[6],0%
same,Eos,[6],0.8%
same,Fbg,[6],227.4 mg/dL
same,Hb,[6],13.4 g/dL
same,Ht,[6],40.6%
same,Lym,[6],68.2%
same,MCH,[6],21.5 pg
same,MCHC,[6],33%
same,MCV,[6],65.3 fL
same,Mono,[6],9.6%
same,Neu,[6],21.6%
same,PT,[6],11.6 s
same,Plat,[6],117.4 x10_4/uL
same,RBC,[6],622.8 x10_4/ul
same,Ret,[6],5.7%
same,WBC,[6],93.6 x10_2/uL
same,APTT,[7],15.7 s
same,Bas,[7],0%
same,Eos,[7],1%
same,Fbg,[7],238.2 mg/dL
same,Hb,[7],13.9 g/dL
same,Ht,[7],41.7%
same,Lym,[7],75.8%
same,MCH,[7],20.6 pg
same,MCHC,[7],33.2%
same,MCV,[7],62.2 fL
same,Mono,[7],5.2%
same,Neu,[7],18.4%
same,PT,[7],11.4 s
same,Plat,[7],130.8 x10_4/uL
same,RBC,[7],671.4 x10_4/ul
same,Ret,[7],3.8%
same,WBC,[7],138.2 x10_2/uL
same,APTT,[8],19 s
same,Bas,[8],0%
same,Eos,[8],1.2%
same,Fbg,[8],204.2 mg/dL
same,Hb,[8],14.7 g/dL
same,Ht,[8],44.3%
same,Lym,[8],74.6%
same,MCH,[8],19.3 pg
same,MCHC,[8],33.2%
same,MCV,[8],58.2 fL
same,Mono,[8],5%
same,Neu,[8],19.6%
same,PT,[8],12.6 s
same,Plat,[8],117.6 x10_4/uL
same,RBC,[8],761.4 x10_4/ul
same,Ret,[8],2.1%
same,WBC,[8],107.4 x10_2/uL
same,LIVER,[6],13.1 g
same,LIVER,[7],15.3 g
same,LIVER,[8],16.3 g
same,A/G,[6],2.1
same,ALP,[6],1367.8 IU/L
same,ALT,[6],39.6 IU/L
same,AST,[6],65 IU/L
same,BUN,[6],18.2 mg/dL
same,CRE,[6],0.4 mg/dL
same,Ca,[6],11.7 mg/dL
same,Cl,[6],103.2 meq/L
same,DBIL,[6],0.018 mg/dL
same,GLC,[6],202.2 mg/dL
same,IP,[6],7.4 mg/dL
same,K,[6],4.4 meq/L
same,LDH,[6],110.6 IU/L
same,Na,[6],140 meq/L
same,PL,[6],150.8 mg/dL
same,RALB,[6],3.8 g/dL
same,TBIL,[6],0.04 mg/dL
same,TC,[6],79.4 mg/dL
same,TG,[6],106.6 mg/dL
same,TP,[6],5.6 g/dL
same,gamma-GTP,[6],0.6 IU/L
same,A/G,[7],2.1
same,ALP,[7],1397.6 IU/L
same,ALT,[7],36.6 IU/L
same,AST,[7],68 IU/L
same,BUN,[7],19.4 mg/dL
same,CRE,[7],0.4 mg/dL
same,Ca,[7],11.8 mg/dL
same,Cl,[7],105 meq/L
same,DBIL,[7],0.012 mg/dL
same,GLC,[7],188.6 mg/dL
same,IP,[7],6.9 mg/dL
same,K,[7],4.6 meq/L
same,LDH,[7],142.4 IU/L
same,Na,[7],139.2 meq/L
same,PL,[7],164.2 mg/dL
same,RALB,[7],3.9 g/dL
same,TBIL,[7],0.03 mg/dL
same,TC,[7],85.4 mg/dL
same,TG,[7],152.4 mg/dL
same,TP,[7],5.8 g/dL
same,gamma-GTP,[7],1 IU/L
same,A/G,[8],1.8
same,ALP,[8],1025.4 IU/L
same,ALT,[8],33 IU/L
same,AST,[8],64.2 IU/L
same,BUN,[8],18 mg/dL
same,CRE,[8],0.4 mg/dL
same,Ca,[8],10.7 mg/dL
same,Cl,[8],105.8 meq/L
same,DBIL,[8],0.01 mg/dL
same,GLC,[8],175.2 mg/dL
same,IP,[8],6.2 mg/dL
same,K,[8],4.5 meq/L
same,LDH,[8],101.8 IU/L
same,Na,[8],141.2 meq/L
same,PL,[8],134.8 mg/dL
same,RALB,[8],3.8 g/dL
same,TBIL,[8],0.032 mg/dL
same,TC,[8],65.6 mg/dL
same,TG,[8],143 mg/dL
same,TP,[8],6 g/dL
same,gamma-GTP,[8],1 IU/L
